From patent US4965266A, “Heteroarylcarboxamide derivatives, process for preparing the same and pharmaceutical composition containing the same” (Dainippon Pharmaceutical Co., Ltd., priority 1987, dated 1990) come the findings set out here.

The subject of one data set is ddY mice. Nature of the data set: Acute toxicity. Type of data set: in vivo. The conditions noted are these: 1000 mg/kg oral; male ddY mice, 7 days observation. The source says: Five male ddY mice weighing 25 to 29 g were used in each group.
For the next data set, the target named is T1, 5-lipoxygenase (Cavia porcellus, UniProt A0A286X958).
T1 construct: A cytosol fraction of peritoneal exudate cell from male Hartley guinea pig (weighing 400 to 700 g) was used as 5-lipoxygenase; endogenous in cells; host or cells: cytosol fraction of peritoneal exudate cells from male Hartley guinea pig
T1 sequence (A0A286X958 1-674): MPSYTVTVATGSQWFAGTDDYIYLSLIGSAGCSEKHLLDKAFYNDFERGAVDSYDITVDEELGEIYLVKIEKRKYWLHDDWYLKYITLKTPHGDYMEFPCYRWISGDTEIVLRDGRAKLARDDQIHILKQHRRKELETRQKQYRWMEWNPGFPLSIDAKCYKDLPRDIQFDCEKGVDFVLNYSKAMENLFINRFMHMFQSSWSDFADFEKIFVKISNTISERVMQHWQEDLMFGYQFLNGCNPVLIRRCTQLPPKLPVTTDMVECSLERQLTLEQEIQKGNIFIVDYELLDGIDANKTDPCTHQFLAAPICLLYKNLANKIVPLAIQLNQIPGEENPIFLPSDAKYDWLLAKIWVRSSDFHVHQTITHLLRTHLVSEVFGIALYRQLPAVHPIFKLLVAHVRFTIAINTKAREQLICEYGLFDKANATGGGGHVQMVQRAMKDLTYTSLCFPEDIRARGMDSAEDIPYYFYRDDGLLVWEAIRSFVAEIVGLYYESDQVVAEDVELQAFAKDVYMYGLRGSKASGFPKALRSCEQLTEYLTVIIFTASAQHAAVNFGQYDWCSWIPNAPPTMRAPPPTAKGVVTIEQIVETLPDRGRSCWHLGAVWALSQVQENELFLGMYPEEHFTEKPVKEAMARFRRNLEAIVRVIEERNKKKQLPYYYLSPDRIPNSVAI
Briefly: Inhibitory effect on 5-lipoxygenase activity (antiallergic activity in vitro). Type of data set: biochemical, guinea pig (male Hartley). The conditions noted are these: for inhibition at 10 µM: 10^-5 M test compound, guinea pig peritoneal exudate cell cytosol, mean of 3 to 6 experiments. The method, then:
This experiment was carried out by the method of Miyamoto and Obata ["Perspectives in Prostaglandin Research", ed. by Y. Shiokawa et al., Excerpta Medica, Amsterdam-Oxford-Princeton, 1983, p.78] with minor modifications.
A cytosol fraction of peritoneal exudate cell from male Hartley guinea pig (weighing 400 to 700 g) was used as 5-lipoxygenase. As a standard reaction solution, a mixture of 50 mM potassium phosphate buffer (pH 7.4), 1 mM calcium chloride, 1 mM glutathione, 1 mM adenosine triphosphate, 10 μM indomethacin and the enzyme was used. To the reaction solution was added 0.02 μCi of [1-^14 C] arachidonic acid and the mixture was incubated at 30° C. for 5 minutes, followed by adding 0.6 ml of a cold solution comprising diethyl ether methanol -0.2 M citric acid (30 : 4 : 1) to terminate the reaction. The organic layer (300 μ1) was subjected to a thin layer chromatography plate on silica gel 60 F254 (E. Merck, West Germany) and, after developing, a radioactivity was measured by means of radiochromatogram scanner (Packard, U.S.A.) 5-Lipoxygenase activity was calculated by the following equation. [formula]
The results are shown in Table 1 in terms of mean value of 3 to 6 experiments.

Data set [1] concerns passive cutaneous anaphylaxis (PCA). Nature of the data set: Inhibitory effect on passive cutaneous anaphylaxis (PCA) (antiallergic activity in vivo). The conditions noted are these: 20 mg/kg oral, 1 hour prior to dye injection; rats; vs control group. Also noted: species or system rat (male Wistar). On the procedure:
Male Wistar rats (weighing 130 to 190 g) were injected with a dilute solution (0.1 ml) of mouse antiserum to egg albumin, which was prepared by the method of Levine et al. [Int. Arch. Allergy Appl. […] Forty-eight hours later, 0.5% Evan's blue solution (1 ml) containing 2 mg of egg albumin was intravenously injected to tail vein of the animal. Thirty minutes after the dye injection, abdominal skin was peeled off and the area of the blueing lesions was measured. In each rat, a mean value of the two lesions was regarded as the response of the rat. The test compounds in a dose of 20 mg/kg, dissolved or suspended in a 0.5% aqueous tragacanth solution, were orally administered 1 hour prior to the dye injection.

Molecules are shown by their SMILES. Counter-ions that a name gives are not always drawn.

On to `Cc1ccc2c(O)c(C(=O)NCCCCN3CCC(=C(c4ccccc4)c4ccccc4)CC3)cnc2n1` [Example 1, N-[4-(4-diphenylmethylene-1-piperidyl)butyl]-4-hydroxy-7-methyl-1,8-naphthyridine-3-carboxamide.cndot.1/4 hydrate], for which the “death of the animals” value in the data set with ddY mice is recorded as “no death was observed”. In addition, the inhibition (commonly the share of the control response that was lost under treatment) at 10 µM against 5-lipoxygenase was 96.8%. The “PCA inhibition (%)” value in data set [1] is on record as 88.3%.
On 5-lipoxygenase, `Cc1ccc2c(O)c(C(=O)NCCCCN3CCN(C(c4ccccc4)c4ccccc4)CC3)cnc2n1` [Example 2, N-[4-(4-diphenylmethyl-1-piperazinyl)butyl]-4-hydroxy-7-methyl-1,8-naphthyridine-3-carboxamide.cndot.1/2 hydrate] showed an inhibition at 10 µM of 79.6%. Also, the “PCA inhibition (%)” value in data set [1] was 80.7%.
Regarding `COc1cccc2c(O)c(C(=O)NCCCCN3CCN(C(c4ccccc4)c4ccccc4)CC3)cnc12` [Example 3, N-[4-(4-diphenylmethyl-1-piperazinyl)butyl]-4-hydroxy-8-methoxyquinoline-3-carboxamide], the “death of the animals” value in the data set with ddY mice is “no death was observed”. The same molecule showed an inhibition at 10 µM against 5-lipoxygenase of 91.3%. Further, the “PCA inhibition (%)” value in data set [1] came out at 56.0%.
For `O=C(NCCCCN1CCN(C(c2ccccc2)c2ccccc2)CC1)c1cnc2cccc(O)c2c1O` [Example 4, N-[4-(4-diphenylmethyl-1-piperazinyl)butyl]-4,5-dihydroxyquinoline-3-carboxamide], testing at 10 µM at 5-lipoxygenase gave an inhibition of 95.4%.
On to `COc1c(C(=O)NCCCCN2CCN(C(c3ccccc3)c3ccccc3)CC2)cnc2ccccc12` [Example 5, N-[4-(4-diphenylmethyl-1-piperazinyl)butyl]-4-methoxyquinoline-3-carboxamide.cndot.1/4 hydrate], for which, at 5-lipoxygenase, testing at 10 µM gave an inhibition of 80.3%.
With `CC(C)c1ccc(C(=O)NCCCCN2CCN(C(c3ccccc3)c3ccccc3)CC2)c(O)n1` [Example 6, N-[4-(4-diphenylmethyl-1-piperazinyl)butyl]-2-hydroxy-6-isopropylpyridine-3carboxamide], in the data set on ddY mice, the “death of the animals” value is “no death was observed”. Further, the inhibition at 10 µM at 5-lipoxygenase worked out at 75.1%. For the same molecule, the “PCA inhibition (%)” value in data set [1] came to 93.0%.
Regarding `N#Cc1cccc2ncc(C(=O)NCCCCN3CCN(C(c4ccccc4)c4ccccc4)CC3)c(O)c12` [Example 7 (5cyano compound), N-[4-(4-diphenylmethyl-1-piperazinyl)butyl]-5-cyano-4-hydroxyquinoline-3-carboxamide], on 5-lipoxygenase, the inhibition at 10 µM is 92.1%.
The same measure, in the same setting: the result for `N#Cc1ccc2c(O)c(C(=O)NCCCCN3CCN(C(c4ccccc4)c4ccccc4)CC3)cnc2c1` [Example 7 (7cyano compound), N-[4-(4-diphenylmethyl-1-piperazinyl)butyl]-7-cyano-4-hydroxyquinoline-3-carboxamide] reads 84.7%; that for `COc1cccc2c(O)c(C(=O)NCCCCN3CCC(=C(c4ccccc4)c4ccccc4)CC3)cnc12` [Example 8, N-[4-(4-diphenylmethylene-1piperidyl)butyl]-4-hydroxy-8-methoxyquinoline-3-carboxamide.cndot.fumarate], 93.3%; that for `Cc1ccc2c(S)c(C(=O)NCCCCN3CCN(C(c4ccccc4)c4ccccc4)CC3)cnc2n1` [Example 9, N-[4-(4-diphenylmethyl-1-piperazinyl)butyl]-4-mercapto-7-methyl-1,8-naphthyridine-3-carboxamide.cndot.fumarate.cndot.1/2 hydratet], 88.3%.
For `Cc1ccc(C(=O)NCCCCN2CCN(C(c3ccccc3)c3ccccc3)CC2)c(O)n1` [Example 10, N-[4-(4-diphenylmethyl-1-piperazinyl)butyl]-2-hydroxy-6-methylpyridine-3-carboxamide], in data set [1], the “PCA inhibition (%)” value came out at 84.8%.
With `O=C(NCCCCN1CCN(C(c2ccccc2)c2ccccc2)CC1)c1cnc2ccccc2c1O` [Example 12], at 5-lipoxygenase, 10 µM produced 83.7% inhibition.
At 5-lipoxygenase, `Cc1ccc2ncc(C(=O)NCCCCN3CCN(C(c4ccccc4)c4ccccc4)CC3)c(O)c2c1` [Example 14] returned an inhibition at 10 µM of 93.7%.
Still for that read-out and setting: the value for `Cc1ccc2c(O)c(C(=O)NCCCCN3CCN(C(c4ccccc4)c4ccccc4)CC3)cnc2c1` [Example 15] was 93%; that for `Cc1cccc2c(O)c(C(=O)NCCCCN3CCN(C(c4ccccc4)c4ccccc4)CC3)cnc12` [Example 16] was 90.6%.
With `CC(C)c1ccc2ncc(C(=O)NCCCCN3CCN(C(c4ccccc4)c4ccccc4)CC3)c(O)c2c1` [Example 17], the inhibition at 10 µM on 5-lipoxygenase was 95.3%.
Molecule `COc1ccc2ncc(C(=O)NCCCCN3CCN(C(c4ccccc4)c4ccccc4)CC3)c(O)c2c1` [Example 18] registered an inhibition at 10 µM against 5-lipoxygenase of 93.2%.
Take `COc1ccc2c(O)c(C(=O)NCCCCN3CCN(C(c4ccccc4)c4ccccc4)CC3)cnc2c1` [Example 19]: at 5-lipoxygenase, the inhibition at 10 µM turned out to be 92.8%.
Same read-out and setting: the result for `CCCCOc1cccc2c(O)c(C(=O)NCCCCN3CCN(C(c4ccccc4)c4ccccc4)CC3)cnc12` [Example 20] reads 94.8%.
Turning to `N#Cc1ccc2ncc(C(=O)NCCCCN3CCN(C(c4ccccc4)c4ccccc4)CC3)c(O)c2c1` [Example 21], at 5-lipoxygenase, the inhibition at 10 µM came to 67.9%.
Take `CN1CCC(=C2c3ccccc3CC(=O)c3sccc32)CC1` [Ketotifen fumarate, reference compound]: on 5-lipoxygenase (ketotifen fumarate at 10^-4 M), the “5-lipoxygenase inhibitory activity (in words)” value is given as “did not show any significant inhibitory activity”. In data set [1], the “PCA inhibition (%)” value stood at 54.7%.
